Where a name gives a salt, the structure may show the parent alone.
Tests used:
placental αvβ3 = molecular target: T1, placental αvβ3 (Homo sapiens, UniProt P05106+P06756); assay: Fibrinogen binding to immobilized αvβ3; conditions: biotinylated-fibrinogen 10 nM, immobilized placental αvβ3; read-out: IC50 values for the fibrinogen binding assay αvβ3
T1 construct: purified active GP IIb-IIIa (Calbiochem) or olacental αvβ3 at 0.5 μg/ml; from tissue; host or cells: placenta
Experimental: (§1) Nonbound fibrinogen was removed by five washes with binding buffer. Avidin conjugated to alkaline phosphatase (Sigma), diluted in binding buffer, was added and incubated for two hours at 37° C. The plates were washed five times with binding buffer, and after addition of the substrate PNPP (Pierce), the enzyme activity was measured by the absorbance at 405 nm.

[1] = system: Chick Chorioallantoic Membrane (CAM) capillary formation; assay: Chick chorioallantoic membrane (CAM) mesh assay; assay type: in vivo, chicken; conditions: Day 12, 24 hr treatment
Experimental: Fertilized white leghorn chicken eggs (SPAFAS Inc., Norwich, Conn.) were received at day 0 and incubated for 3 days at 37 C with constant humidity. On day 3, eggs were rinsed with 70% ethanol and opened into 100 mm^2 tissue culture coated Petri dishes under aseptic conditions. The embryos were then returned to a humidified 38 C incubator for 7-9 additional days.
Vitrogen (Collagen Biomaterials, Palo Alto, Calif.) at a final concentration of 0.73 mg/ml and Matrigel (Becton Dickinson, Bedford, Mass.) at a final concentration of 10 mg/ml was directly pipetted onto Nylon meshes with 250 μm^2 openings which were cut into 4 mm×4 mm squares and autoclaved. Polymerization of meshes were under aseptic conditions, on bacteriological Petri dishes. The polymerization conditions for each substrate were identical; after mixing with or without […] of VPF/VEGF165 (Peprotech, Rocky Hill, N.J.) and/or compounds of interest, 40 μl were pipetted onto each mesh in a bacteriological Petri dish.
The Petri dish was placed in a humidified 37 C incubator with 5% CO2 for 30 minutes to allow polymerization followed by an incubation at 4 C for 2 hours.
In a tissue culture enclosure, meshes were placed onto the periphery of the CAM of a day 12-14 embryo, excluding areas containing major vessels. The embryos were then returned to the humidified 38 C incubator with 3% CO2 for 24 to 48 additional hours.
Embryos were removed from the incubator and meshes were viewed under a dissecting microscope for gross evaluation. Injection of 400 μl FITC dextran, MW 2,000,000 (Sigma, St. Louis, Mo.) through glass microcapillary tubes by infusion into the umbilical vein was performed at a rate of 200 μl per minute. The FITC dextran was allowed to circulate for 5 minutes and 3.7% formaldehyde in PBS was applied directly on each mesh. The embryos were then incubated at 4 C for 5 minutes and the meshes were dissected off the CAM and fixed in 3.7% formaldehyde for 10 minutes to overnight.
After fixation, meshes were mounted on slides with 90% glycerol in PBS and visualized on an inverted fluorescence microscope. A Nikon Diaphot with a Sony DXC-151A camera attached to the side port was used for capture of images and analysis was with the NIH Image 1.61 software program. For each mesh, 5 random staggered images (approximately 600 μm each) were captured. The areas of high intensity were highlighted and measured. Results are expressed as ability to suppress capillary formation after subtraction from negative control. Values were calculated as i inhibition, considering 100% the capillary density achieved by VPF in the presence of vitrogen alone minus the background levels in the absence of VPF. Negative values indicate angiogenic stimulation above the VPF positive control.

GP IIb-IIIa (αIIbβ3) = molecular target: T2, GP IIb-IIIa (αIIbβ3) (Homo sapiens, UniProt P05106+P08514); assay: Fibrinogen binding to immobilized GP IIb-IIIa (αIIbβ3); conditions: biotinylated-fibrinogen 10 nM, immobilized GP IIb-IIIa; read-out: IC50 values for the fibrinogen binding assay αIIbβ3
T2 construct: purchased Calbiochem
T2 sequence (P08514 32-887 limits assumed): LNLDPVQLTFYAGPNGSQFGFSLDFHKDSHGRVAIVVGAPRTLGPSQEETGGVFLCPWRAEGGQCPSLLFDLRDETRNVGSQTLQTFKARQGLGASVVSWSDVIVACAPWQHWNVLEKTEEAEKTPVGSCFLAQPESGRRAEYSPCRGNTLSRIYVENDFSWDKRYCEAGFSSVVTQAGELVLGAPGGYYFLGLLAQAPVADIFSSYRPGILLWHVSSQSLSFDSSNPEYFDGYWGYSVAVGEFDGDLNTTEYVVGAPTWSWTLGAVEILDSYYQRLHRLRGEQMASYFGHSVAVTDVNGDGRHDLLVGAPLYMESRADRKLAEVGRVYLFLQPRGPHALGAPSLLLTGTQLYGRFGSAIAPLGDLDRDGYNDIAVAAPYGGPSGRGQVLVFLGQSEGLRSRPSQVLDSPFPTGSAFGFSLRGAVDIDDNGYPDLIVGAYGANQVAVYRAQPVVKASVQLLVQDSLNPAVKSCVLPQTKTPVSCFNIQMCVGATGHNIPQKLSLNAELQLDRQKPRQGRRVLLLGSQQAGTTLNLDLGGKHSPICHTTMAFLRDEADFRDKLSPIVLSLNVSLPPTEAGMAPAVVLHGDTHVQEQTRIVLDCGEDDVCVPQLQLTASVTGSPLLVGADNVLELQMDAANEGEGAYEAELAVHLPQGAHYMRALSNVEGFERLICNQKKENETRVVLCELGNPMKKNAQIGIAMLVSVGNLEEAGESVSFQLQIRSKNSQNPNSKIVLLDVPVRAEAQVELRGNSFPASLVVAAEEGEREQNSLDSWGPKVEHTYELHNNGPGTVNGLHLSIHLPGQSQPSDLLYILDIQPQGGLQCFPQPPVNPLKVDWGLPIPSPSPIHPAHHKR
T2 sequence (P08514 891-1039 partner limits assumed): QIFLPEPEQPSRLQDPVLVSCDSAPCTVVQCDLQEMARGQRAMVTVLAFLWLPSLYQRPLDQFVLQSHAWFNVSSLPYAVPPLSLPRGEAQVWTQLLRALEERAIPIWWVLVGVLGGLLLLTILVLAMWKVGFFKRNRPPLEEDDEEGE
T2 sequence (P05106 27-788): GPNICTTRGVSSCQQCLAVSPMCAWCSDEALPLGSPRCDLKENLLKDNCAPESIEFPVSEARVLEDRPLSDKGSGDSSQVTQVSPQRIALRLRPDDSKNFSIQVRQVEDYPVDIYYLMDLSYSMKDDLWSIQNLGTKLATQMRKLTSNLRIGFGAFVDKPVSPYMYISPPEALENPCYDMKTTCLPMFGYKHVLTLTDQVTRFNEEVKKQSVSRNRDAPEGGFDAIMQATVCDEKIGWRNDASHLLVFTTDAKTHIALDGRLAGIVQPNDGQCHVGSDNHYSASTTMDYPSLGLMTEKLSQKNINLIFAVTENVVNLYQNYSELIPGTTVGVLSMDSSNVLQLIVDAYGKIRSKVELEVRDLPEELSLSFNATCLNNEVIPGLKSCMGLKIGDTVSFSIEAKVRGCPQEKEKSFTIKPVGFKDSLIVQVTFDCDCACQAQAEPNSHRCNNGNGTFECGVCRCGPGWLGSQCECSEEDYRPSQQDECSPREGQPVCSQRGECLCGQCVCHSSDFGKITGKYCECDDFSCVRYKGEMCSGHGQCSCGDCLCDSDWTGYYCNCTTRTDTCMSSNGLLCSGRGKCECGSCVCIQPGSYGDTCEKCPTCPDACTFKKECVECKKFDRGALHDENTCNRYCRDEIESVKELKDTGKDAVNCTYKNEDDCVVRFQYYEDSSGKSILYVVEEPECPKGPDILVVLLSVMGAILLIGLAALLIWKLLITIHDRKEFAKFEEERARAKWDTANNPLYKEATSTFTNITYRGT
Experimental: as §1

T1 sequence (P06756 31-889 limits assumed): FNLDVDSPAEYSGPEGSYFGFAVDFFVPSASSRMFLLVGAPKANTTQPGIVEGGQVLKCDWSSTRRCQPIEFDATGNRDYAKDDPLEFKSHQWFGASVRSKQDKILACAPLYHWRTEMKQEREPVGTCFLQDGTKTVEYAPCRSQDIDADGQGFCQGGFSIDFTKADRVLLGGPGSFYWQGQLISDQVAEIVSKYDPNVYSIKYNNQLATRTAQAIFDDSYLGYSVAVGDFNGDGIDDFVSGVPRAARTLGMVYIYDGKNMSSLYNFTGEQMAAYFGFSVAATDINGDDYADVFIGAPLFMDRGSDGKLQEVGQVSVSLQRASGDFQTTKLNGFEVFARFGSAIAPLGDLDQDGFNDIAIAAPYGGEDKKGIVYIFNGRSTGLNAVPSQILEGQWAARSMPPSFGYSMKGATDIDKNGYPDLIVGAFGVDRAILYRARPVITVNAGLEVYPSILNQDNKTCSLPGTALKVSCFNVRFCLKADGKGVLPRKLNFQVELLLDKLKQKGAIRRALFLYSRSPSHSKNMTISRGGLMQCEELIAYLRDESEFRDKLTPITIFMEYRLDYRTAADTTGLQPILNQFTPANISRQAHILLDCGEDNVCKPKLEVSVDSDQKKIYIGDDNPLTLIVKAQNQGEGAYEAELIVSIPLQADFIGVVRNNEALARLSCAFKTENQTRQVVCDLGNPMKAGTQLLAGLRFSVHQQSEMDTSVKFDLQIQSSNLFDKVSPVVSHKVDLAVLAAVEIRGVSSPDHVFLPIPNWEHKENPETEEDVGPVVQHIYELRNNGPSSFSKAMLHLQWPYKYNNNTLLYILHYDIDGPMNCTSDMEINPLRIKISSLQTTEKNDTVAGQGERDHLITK
T1 sequence (P06756 891-1048 partner limits assumed): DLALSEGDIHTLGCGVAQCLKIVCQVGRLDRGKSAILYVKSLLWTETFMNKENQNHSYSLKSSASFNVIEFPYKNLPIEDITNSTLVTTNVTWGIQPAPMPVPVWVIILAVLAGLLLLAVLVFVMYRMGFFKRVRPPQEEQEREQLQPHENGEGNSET
T1 sequence (P05106 27-788): as the sequence (P05106 27-788) above

Row | SMILES | IC50 (placental αvβ3) | IC50 (GP IIb-IIIa (αIIbβ3)) | other results
1 | NCCCOc1ccc2ccc(C(=O)N[C@H]3CCCC[C@@H]3C(=O)O)c(=O)n2c1.O=C(O)C(F)(F)F (racemic) [Compound V, (+/−)(trans)-2-{[7-(3-Amino-propoxy)-4-oxo-4H-quinolizine-3-carbonyl]-amino}-cyclohexanecarboxylic Acid Trifluoroacetic Acid Salt] | > 100000 nM | 96000 nM | CAM inhibition of capillary formation ([1]; 3 μg/mesh, +VPF): 7%; CAM inhibition of capillary formation ([1]; 3 μg/mesh, −VPF): 1%; CAM inhibition of capillary formation ([1]; 17 μg/mesh, +VPF): 9%; CAM inhibition of capillary formation ([1]; 17 μg/mesh, −VPF): 8%; CAM inhibition of capillary formation ([1]; 33 μg/mesh, +VPF): 20%; CAM inhibition of capillary formation ([1]; 33 μg/mesh, −VPF): 15%
2 | N=C(N)N1CCN(c2ccn3c(=O)c(C(=O)NC(CC(=O)O)c4ccccc4)ccc3c2)CC1.O=C(O)C(F)(F)F (racemic) [Compound XL, (+/−)-3-{[8-(4-Carbamimidoyl-piperazin-1-yl)-4-oxo-4H-quinolizine-3-carbonyl]-amino}-3-phenyl-propionic Acid Trifluoroacetic Acid Salt] | 1900 nM | – | CAM inhibition of capillary formation ([1]; 3 μg/mesh, +VPF): −2%; CAM inhibition of capillary formation ([1]; 3 μg/mesh, −VPF): 4%; CAM inhibition of capillary formation ([1]; 17 μg/mesh, +VPF): 7%; CAM inhibition of capillary formation ([1]; 17 μg/mesh, −VPF): 10%; CAM inhibition of capillary formation ([1]; 33 μg/mesh, +VPF): 11%; CAM inhibition of capillary formation ([1]; 33 μg/mesh, −VPF): 9%
3 | N=C(N)NCc1ccc2cc(C(=O)NC[C@H](NC(=O)OCc3ccccc3)C(=O)O)cc(=O)n2c1 [Compound XLVIII, (S)-2-Benzyloxycarbonylamino-3-[(7-guanidinomethyl-4-oxo-4H-quinolizine-2-carbonyl)-amino]-propionic acid trifluoroacetic acid salt] | 4.9 nM | 2600 nM | –
4 | NCCCCOc1ccc2cc(C(=O)NC[C@H](NS(=O)(=O)c3ccccc3)C(=O)O)cc(=O)n2c1 [Compound XVII, (S)-3-{[7-(4-Amino-butoxy)-4-oxo-4H-quinolizine-2-carbonyl]-amino}-2-benzenesulfonylamino-propionic Acid Trifluoroacetic Acid Salt] | 5100 nM | 0.17 nM | –
5 | N=C(N)NCCCCOc1ccc2cc(C(=O)NC[C@H](NS(=O)(=O)c3ccccc3)C(=O)O)cc(=O)n2c1 [Compound XVIII, (S)-2-Benzenesulfonylamino-3-{[7-(4-guanidino-butoxy)-4-oxo-4H-quinolizine-2-carbonyl]-amino}-propionic Acid Hydrochloride] | 2200 nM | 5.3 nM | –
6 | NCCCCOc1ccn2c(=O)cc(C(=O)NC[C@H](NS(=O)(=O)c3ccccc3)C(=O)O)cc2c1 [Compound XXXII, (S)-3-{[8-(4-Amino-butoxy)-4-oxo-4H-quinolizine-2-carbonyl]-amino}-2-benzenesulfonylamino-propionic Acid Trifluoroacetic Acid Salt] | 12000 nM | 5.5 nM | –
7 | N=C(N)NCCCCOc1ccn2c(=O)cc(C(=O)NC[C@H](NS(=O)(=O)c3ccccc3)C(=O)O)cc2c1 [Compound XXXIII, (S)-2-Benzenesulfonylamino-3-{[8-(4-guanidino-butoxy)-4-oxo-4H-quinolizine-2-carbonyl]-amino}-propionic Acid Hydrochloride] | 15000 nM | 44 nM | –

The next lines start with results.

Row | IC50 (placental αvβ3) | IC50 (GP IIb-IIIa (αIIbβ3)) | SMILES | other results
8 | > 100000 nM | 1500 nM | NCCCOc1ccc2cc(C(=O)NCCC(=O)O)cc(=O)n2c1 [Compound XVI, 3-{[7-(3-Amino-propoxy)-4-oxo-4H-quinolizine-2-carbonyl]-amino}-propionic Acid Trifluoroacetic Acid Salt] | –
9 | 540 nM | 45 nM | N=C(N)NCCCOc1ccc2cc(C(=O)NCC(Nc3ncccn3)C(=O)O)cc(=O)n2c1 (stereo not drawn) [Compound XXII, 3-{[7-(3-Guanidino-propoxy)-4-oxo-4H-quinolizine-2-carbonyl]-amino}-2-(pyrimidin-2-ylamino)-propionic Acid Hydrochloride] | –
10 | > 100000 nM | 820 nM | CN([C@@H](CNC(=O)c1cc(=O)n2cc(OCCCN)ccc2c1)C(=O)O)S(=O)(=O)c1ccccc1 [Compound XXIII, (S)-3-{[7-(3-Amino-propoxy)-4-oxo-4H-quinolizine-2-carbonyl]-amino}-2-(benzenesulfonyl-methyl-amino)-propionic Acid Trifluoroacetic Acid Salt] | –
11 | 58000 nM | 1300 nM | CN([C@@H](CNC(=O)c1cc(=O)n2cc(OCCCNC(=N)N)ccc2c1)C(=O)O)S(=O)(=O)c1ccccc1 [Compound XXIV, (S)-2-(Benzenesulfonyl-methyl-amino)-3-{[7-(3-guanidino-propoxy)-4-oxo-4H-quinolizine-2-carbonyl]-amino}-propionic Acid Hydrochloride] | –
12 | 15000 nM | 1250 nM | O=C(NC[C@H](NS(=O)(=O)c1ccccc1)C(=O)O)c1cc(=O)n2cc(OCCCNc3ncccn3)ccc2c1 [Compound XXV, (S)-2-Benzenesulfonylamino-3-({4-oxo-7-[3-(pyrimidin-2-ylamino)-propoxy]-4H-quinolizine-2-carbonyl}-amino)-propionic Acid] | –
13 | 370 nM | 100 nM | NCC1CCc2cc(C(=O)NCC(NS(=O)(=O)c3ccccc3)C(=O)O)cc(=O)n2C1 [Compound XXVIII, (2S, 7R) and (2S, 7S)-3-[(7-Aminomethyl-4-oxo-6,7,8,9-tetrahydro-4H-quinolizine-2-carbonyl)-amino]-2-benzenesulfonylamino-propionic Acid Trifluoroacetic Acid Salt] | –
14 | 17000 nM | 110 nM | NCCCOc1ccn2c(=O)cc(C(=O)NC[C@H](NS(=O)(=O)c3ccccc3)C(=O)O)cc2c1 [Compound XXX, (S)-3-{[8-(3-Amino-propoxy)-4-oxo-4H-quinolizine-2-carbonyl]-amino}-2-benzenesulfonylamino-propionic Acid Trifluoroacetic Acid Salt] | –
15 | 9400 nM | 24 nM | N=C(N)NCCCOc1ccn2c(=O)cc(C(=O)NC[C@H](NS(=O)(=O)c3ccccc3)C(=O)O)cc2c1 [Compound XXXI, (S)-2-Benzenesulfonylamino-3-{[8-(3-guanidino-propoxy)-4-oxo-4H-quinolizine-2-carbonyl]-amino)-propionic Acid Hydrochloride] | –
16 | 17000 nM | 16 nM | NCCCCCOc1ccn2c(=O)cc(C(=O)NC[C@H](NS(=O)(=O)c3ccccc3)C(=O)O)cc2c1 [Compound XXXIV, (S)-3-{[8-(S-Amino-pentyloxy)-4-oxo-4H-quinolizine-2-carbonyl]-amino}-2-benzenesulfonylamino-propionic Acid Trifluoroacetic Acid Salt] | –
17 | 15000 nM | 1500 nM | N=C(N)NCCCCCOc1ccn2c(=O)cc(C(=O)NC[C@H](NS(=O)(=O)c3ccccc3)C(=O)O)cc2c1 [Compound XXXV, (S)2-Benzenesulfonylamino-3-{[8-(5-guanidino-pentyloxy)-4-oxo-4H-quinolizine-2-carbonyl]-amino}propionic Acid Hydrochloride] | –
